{"source": "paper PMC12040169", "about": "(PLOS Biology, 2025)"}
{"assay": "in vitro", "conditions": "human, hela cells, % viability", "units": {"viability at 28.5 h, 10 µM": "%"}}
{"smiles": "CC(C)N(C)C1CCN(S(=O)(=O)c2cccc([N+](=O)[O-])c2)CC1", "note": "[CBK294462]", "viability at 28.5 h, 10 µM": 88.7}
{"smiles": "CCCC/C=C/c1cnc(N)c(-c2ccc(C(=O)NCCO)cc2)n1", "note": "[CBK064141]", "viability at 28.5 h, 10 µM": 106}
{"smiles": "O=C(N[C@H]1CCN2C(=O)N(c3cccc4nsnc34)C(=O)[C@@H]2C1)c1cccs1", "note": "[CBK289543]", "viability at 28.5 h, 10 µM": 87}
{"smiles": "CCCN1CCN(c2ncnc3sc(C4COc5ccccc5O4)cc23)CC1", "note": "(stereo not shown) [CBK269396]", "viability at 28.5 h, 10 µM": 98.1}
{"smiles": "Cc1c(C(=O)N2CC(n3cc(C(C)O)nn3)C2)sc2ccc(F)cc12", "note": "(stereo not shown) [CBK305446]", "viability at 28.5 h, 10 µM": 94.5}
{"smiles": "CS(=O)(=O)Nc1ccc(CC#N)cc1", "note": "[CBK038145]", "viability at 28.5 h, 10 µM": 114}
{"smiles": "Cc1ccc(CN(Cc2[nH]cnc2C)C2CC(C)(C)NC(C)(C)C2)o1", "note": "[CBK283176]", "viability at 28.5 h, 10 µM": 96.7}
{"smiles": "Cc1nnc2sc(-c3ccc(NC(=O)CSc4ccc(Cl)cc4)cc3)nn12", "note": "[CBK266800]", "viability at 28.5 h, 10 µM": 108}
{"smiles": "CCCC(C(=O)NC(C)(C)CN1CCCCC1)n1nc(C)cc1C", "note": "(stereo not shown) [CBK282061]", "viability at 28.5 h, 10 µM": 94.8}
{"smiles": "CCCCCCc1ccc(NS(=O)(=O)c2cc3c(NCCN(C)C)nccc3s2)cc1", "note": "[CBK038253C]", "viability at 28.5 h, 10 µM": 100}
{"smiles": "CCC(C(=O)Nc1ccccc1C(=O)Nc1c(Cl)cccc1Cl)c1ccccc1", "note": "(stereo not shown) [CBK266068]", "viability at 28.5 h, 10 µM": 98.4}
{"smiles": "COCCNC(=O)c1nn2c(c1Br)NC(c1cccs1)CC2C(F)(F)F", "note": "(stereo not shown) [CBK307178]", "viability at 28.5 h, 10 µM": 84.5}
{"smiles": "CCOC(=O)CC(=O)COc1nc2cc3c(nc2o1)CCCC3", "note": "[CBK269204]", "viability at 28.5 h, 10 µM": 89.8}
{"smiles": "CCOc1ccc(Cl)cc1CN(C)C(=O)NC(C)CN1CCOCC1", "note": "(stereo not shown) [CBK307170]", "viability at 28.5 h, 10 µM": 92.4}
{"smiles": "Cc1cccc2c3c([nH]c12)C1(CCCN(Cc2ccc(F)cc2Cl)C1)NCC3", "note": "(stereo not shown) [CBK039339]", "viability at 28.5 h, 10 µM": 90}
{"smiles": "COc1ccc(C(C)NC(=O)c2c3c(nn2C)CCCC3)cc1F", "note": "(stereo not shown) [CBK281406]", "viability at 28.5 h, 10 µM": 106}
{"smiles": "O=C(Nc1nc(-c2ccc(S(=O)(=O)N3CCCC3)cc2)cs1)C1COc2ccccc2O1", "note": "(stereo not shown) [CBK096353]", "viability at 28.5 h, 10 µM": 101}
{"smiles": "Cc1cc(-c2cn3cc(C(=O)N(C)CC(C)O)nc3c(=O)n2C)c(C)o1", "note": "(stereo not shown) [CBK307154]", "viability at 28.5 h, 10 µM": 88}
{"smiles": "COc1ccc(NC(=O)CSc2nc3c(N)ncnc3[nH]2)cc1", "note": "[CBK218441]", "viability at 28.5 h, 10 µM": 91.4}
{"smiles": "CC1CCCCN1S(=O)(=O)c1ccc(NC(=O)CCn2cnc3ccccc3c2=O)cc1", "note": "(stereo not shown) [CBK268495]", "viability at 28.5 h, 10 µM": 95.5}
{"smiles": "Clc1ccc(Nc2nnns2)cc1Cl", "note": "[CBK005211]", "viability at 28.5 h, 10 µM": 100}
{"smiles": "Cn1cccc1-c1cc(C(=O)N/N=C/c2cccc(O)c2)[nH]n1", "note": "[CBK263397]", "viability at 28.5 h, 10 µM": 89.9}
{"smiles": "O=C(Nc1snnc1-c1ccc(Cl)cc1)c1ccco1", "note": "[CBK153242]", "viability at 28.5 h, 10 µM": 102}
{"smiles": "O=C1NCC2(C/C=C/CCOc3ccccc31)CCN(Cc1ccccn1)CC2", "note": "[CBK292159]", "viability at 28.5 h, 10 µM": 84.2}
{"smiles": "Cc1cnn(C)c1CN1CCC(C(N)=O)(N2CCCCC2)CC1", "note": "[CBK304400]", "viability at 28.5 h, 10 µM": 89.4}
{"smiles": "O=C(c1ccc(F)cc1)N1C[C@@H]2C[C@H](C1)c1ccc(-c3cncnc3)c(=O)n1C2", "note": "[CBK289185]", "viability at 28.5 h, 10 µM": 92.9}
{"smiles": "Cc1ccc2[nH]c(SCc3nc(O)c4ccccc4n3)nc2c1", "note": "[CBK269908]", "viability at 28.5 h, 10 µM": 84}
{"smiles": "O=C1NCCN(C(=O)c2[nH]nc3c2CCCCC3)C1Cc1ccccc1-c1ccc(F)cc1", "note": "(stereo not shown) [CBK285831]", "viability at 28.5 h, 10 µM": 98.1}
{"smiles": "O=C(O)CCCC(=O)N1N=C(c2cccs2)CC1c1cn(-c2ccccc2)nc1-c1ccccc1", "note": "(stereo not shown) [CBK296124]", "viability at 28.5 h, 10 µM": 90.3}
{"smiles": "CC(C)(C)c1ccc(OCC(O)Cn2c(CO)nc3ccccc32)cc1", "note": "(stereo not shown) [CBK293973]", "viability at 28.5 h, 10 µM": 81.7}
{"smiles": "COCCNc1nc(-c2cccc3ccccc23)cnc1N", "note": "[CBK063574]", "viability at 28.5 h, 10 µM": 99.1}
{"smiles": "NC(=S)NNC(=O)Nc1ccccc1", "note": "[CBK261595]", "viability at 28.5 h, 10 µM": 96.6}
{"smiles": "CC(=O)Nc1cccc(C(C)NC(=O)N(C)C2CCc3ccccc32)c1", "note": "(stereo not shown) [CBK306251]", "viability at 28.5 h, 10 µM": 102}
{"smiles": "Cc1c(CN(C)C(=O)c2ccc(COc3ccc(Cl)cc3)cc2)cnn1C", "note": "[CBK265756]", "viability at 28.5 h, 10 µM": 98.9}
{"smiles": "COc1cccc(-c2ccc3ccc(N)nc3n2)c1", "note": "[CBK061640]", "viability at 28.5 h, 10 µM": 99}
{"smiles": "Cc1ccccc1S(=O)(=O)Nc1cc(CN2C[C@H](C)NC[C@H]2C)c2occc2c1", "note": "[CBK107210T]", "viability at 28.5 h, 10 µM": 108}
{"smiles": "CN1CCN(c2nc(-c3cccc4ncccc34)cnc2N)CC1", "note": "[CBK063465]", "viability at 28.5 h, 10 µM": 107}
{"smiles": "Nc1cc2cccnc2nc1-c1ccncc1", "note": "[CBK067601]", "viability at 28.5 h, 10 µM": 96.5}
{"smiles": "O=C(c1cccnc1)N1CCCC(n2cnc3cc(F)ccc32)C1", "note": "(stereo not shown) [CBK284474]", "viability at 28.5 h, 10 µM": 85.6}
{"smiles": "C=C(C)Cn1c(SC(C)C)nnc1-c1ccccc1OC(F)(F)F", "note": "[CBK200081]", "viability at 28.5 h, 10 µM": 114}
{"smiles": "N#Cc1ccc(N2C(=O)c3ccccc3S2(=O)=O)cc1", "note": "[CBK113195]", "viability at 28.5 h, 10 µM": 113}
{"smiles": "Cc1cc(C)nc(NC(=O)COc2ccc([N+](=O)[O-])cc2)n1", "note": "[CBK265004]", "viability at 28.5 h, 10 µM": 101}
{"smiles": "N#Cc1cccc(CN2CCC(Cc3ccccc3)CC2)c1", "note": "[CBK126380]", "viability at 28.5 h, 10 µM": 87.1}
{"smiles": "CC(C)(C)C(=O)CSc1nnc(-c2ccccc2)n1Cc1ccccc1", "note": "[CBK264960]", "viability at 28.5 h, 10 µM": 108}
{"smiles": "CCOC(=O)c1c(NC(=O)c2nc3ncccn3n2)sc(C)c1C", "note": "[CBK267630]", "viability at 28.5 h, 10 µM": 114}
{"smiles": "Cc1nc(C2CCN(C(=O)CCC3CCCO3)CC2)c2sccn12", "note": "(stereo not shown) [CBK282240]", "viability at 28.5 h, 10 µM": 106}
{"smiles": "Cc1nnnn1-c1cc(NC(=O)NCCN2CCOCC2)ccc1F", "note": "[CBK306246]", "viability at 28.5 h, 10 µM": 89.2}
{"smiles": "O=C(Cc1cccc2ccccc12)Nc1cc(C(=O)O)cc(C(=O)O)c1", "note": "[CBK268475]", "viability at 28.5 h, 10 µM": 94.4}
{"smiles": "CCN(C(=O)Cn1cccc(OC)c1=O)C1CCOC(C)(C)C1", "note": "(stereo not shown) [CBK306879]", "viability at 28.5 h, 10 µM": 86.5}
{"smiles": "O=C(O)C(Cc1c[nH]c2ccccc12)N1Cc2ccccc2C1=O", "note": "(stereo not shown) [CBK287056]", "viability at 28.5 h, 10 µM": 82}
{"smiles": "O=C(c1ccc(-c2nccnc2N2CCN(CCO)CC2)cc1)N1CCOCC1", "note": "[CBK036812]", "viability at 28.5 h, 10 µM": 92.1}
{"smiles": "NC(=O)c1ccc(-c2cnc3[nH]c(=O)n(CCCN4CCOCC4)c3n2)cc1", "note": "[CBK065092]", "viability at 28.5 h, 10 µM": 102}
{"smiles": "CC(=O)c1cccc(NC(=O)Cn2ncc(N3CCCC3)c(Cl)c2=O)c1", "note": "[CBK304395]", "viability at 28.5 h, 10 µM": 89.5}
{"smiles": "CSCCC(=O)N1CCC2(CCN(C(=O)Cc3c[nH]c4ccccc34)C2)C1", "note": "(stereo not shown) [CBK131442]", "viability at 28.5 h, 10 µM": 95.3}
{"smiles": "Cc1ccc(OCC(=O)NCC(c2cccs2)N2CCOCC2)cc1C", "note": "(stereo not shown) [CBK306143]", "viability at 28.5 h, 10 µM": 93.3}
{"smiles": "c1ccc(-n2nnnc2CSc2nc3ccccc3s2)cc1", "note": "[CBK266372]", "viability at 28.5 h, 10 µM": 102}
{"smiles": "COc1ccc(CN2CCCN(S(=O)(=O)c3ccc(C(=O)c4ccccc4)cc3)CC2)cc1F", "note": "[CBK062855]", "viability at 28.5 h, 10 µM": 97.7}
{"smiles": "COc1cc2c(cc1OC)CN(C(=O)Cn1cc(C)c(=O)[nH]c1=O)CC2", "note": "[CBK122745]", "viability at 28.5 h, 10 µM": 92.4}
{"smiles": "Cc1noc(C)c1CN1CCN(CC(CC(=O)Nc2ccc(F)cc2)C(=O)O)CC1", "note": "(stereo not shown) [CBK286821]", "viability at 28.5 h, 10 µM": 90.5}
{"smiles": "CN(C)CC(=O)N1c2ccccc2CCc2ccc(NC(=O)c3ccccc3)cc21", "note": "[CBK261289C]", "viability at 28.5 h, 10 µM": 94.2}
{"smiles": "O=C(CC1CCCC1)N1CCC(c2nnc(-c3ccsc3)o2)CC1", "note": "[CBK283381]", "viability at 28.5 h, 10 µM": 106}
{"smiles": "COc1ccc(C)cc1NC(=S)NCc1cnn(C)c1", "note": "[CBK267025]", "viability at 28.5 h, 10 µM": 106}
{"smiles": "COc1ccc(NC(=N)Nc2nc(=O)cc(CSc3nc4ccccc4s3)[nH]2)cc1", "note": "[CBK266256]", "viability at 28.5 h, 10 µM": 101}
{"smiles": "c1ccc(CSc2nnc(-c3ccco3)o2)cc1", "note": "[CBK026283]", "viability at 28.5 h, 10 µM": 106}
